Values quoted from earlier work in patent US9550804B2, “Dosage form to increase prasterone bioavailability” (Health Science Funding, LLC, priority 2011, dated 2017).
In brackets after ≈: the same amount, converted by molar mass.

What was measured:
[1] = not given; remark: listed apart in the source

**Q.** For `C[C@]12CC[C@H](O)CC1=CC[C@@H]1[C@@H]2CC[C@]2(C)C(=O)CC[C@@H]12` [Prasterone, (3S,8R,9S,10R,13S,14S)-3-hydroxy-10,13-dimethyl-3,4,7,8,9,10,11,12,13,14,15,16-dodecahydro-1H-cyclopenta[a]phenan-thren-17(2H)-one], which solubility in water is on record?
**A.** The solubility in water was 63.5 µg/mL (≈ 220 µM).

**Q.** What about the “log P (octanol-water)” value [1] of the same molecule?
**A.** The value was 3.23.
